Reference: patent publication US10335446B2, “Methods of treating diseases using grape proteins” (priority 2015, dated 2019)
Values joined by “and” are separate entries in the source; they are usually repeats but may differ in a detail not shown here. Identical values can stand only once. Like-named read-outs stand apart in the source and are kept apart here.

Experiments:
Molt-4-luc leukemia = assay type: in vivo
Protocol: Temperature and relative humidity were monitored daily.
The tumor cells were routinely subcultured twice weekly.
Whole body and metastatic bioluminescence were measured and recorded.
Tumor growth curve was plotted with median relative bioluminescence.

3T3-L1 adipocytes = assay: Glucose uptake assay (2-deoxy-D-[3H]-glucose) in 3T3-L1 adipocytes; assay type: cell-based; conditions: for EC50: read-out: Insulin EC50
[1] = day 111 after the cell injection, positive control, treatment right after cell injection, of 6 mice
[2] = 2014 Aug. 27, insulin dose 0.01 nM
[3] = 2014 Aug. 27, insulin dose 0.03 nM
[4] = 2014 Aug. 27, insulin dose 0.09 nM
[5] = 2014 Aug. 27, insulin dose 0.27 nM
[6] = 2014 Aug. 27, insulin dose 7.41 nM
[7] = 2014 Aug. 27, insulin dose 22.2 nM
[8] = 2014 Aug. 27, insulin dose 66.7 nM
[9] = 2014 Aug. 27, insulin dose 200 nM
[10] = 2014 Aug. 28, insulin dose 0.27 nM
[11] = 2014 Aug. 28, insulin dose 2.47 nM
[12] = 2014 Aug. 28, insulin dose 7.41 nM
[13] = 2014 Aug. 28, insulin dose 22.2 nM
[14] = 2014 Aug. 28, insulin dose 66.7 nM
[15] = 2014 Aug. 28, insulin dose 200 nM
[16] = 2014 Jul. 11, insulin dose 0.82 nM
[17] = 2014 Jul. 11, insulin dose 7.41 nM
[18] = 2014 Jul. 11, insulin dose 22.22 nM
[19] = 2014 Jul. 11, insulin dose 66.67 nM
[20] = 2014 Jul. 11, insulin dose 200 nM
[21] = 2014 Jul. 14, insulin dose 0.09 nM
[22] = 2014 Jul. 14, insulin dose 0.82 nM
[23] = 2014 Jul. 14, insulin dose 2.47 nM
[24] = 2014 Jul. 14, insulin dose 7.41 nM
[25] = 2014 Jul. 14, insulin dose 22.2 nM
[26] = 2014 Jul. 14, insulin dose 66.7 nM
[27] = 2014 Jul. 14, insulin dose 200 nM
[28] = Insulin dose 0.09 nM, duplicates
[29] = Insulin dose 7.41 nM, duplicates
[30] = Insulin dose 22.2 nM, duplicates
[31] = Insulin dose 66.7 nM, duplicates
[32] = Insulin dose 200 nM, duplicates

**Q.** Which “survival until day 150” value (Molt-4-luc leukemia; all mice of the group) does the source give for `O=P1(N(CCCl)CCCl)NCCCO1` (centres unmarked) [Cyclophosphamide] here?
**A.** The value was “died”.

**Q.** What about the median relative bioluminescence (Molt-4-luc leukemia; day 50 after cell implantation, treatment given right after cell injection (therapeutic / positive control group), vehicle 153.43) of the same molecule?
**A.** The median relative bioluminescence was 1.40.

**Q.** And the “Animals # with bioluminescence signal” value (Molt-4-luc leukemia; [1])?
**A.** Its value is 1.

**Q.** And the “Survival animals #” value (Molt-4-luc leukemia; [1])?
**A.** The value was 5.

**Q.** What about the survival of mice (Molt-4-luc leukemia; day 111 after the cell injection, six mice per group, vehicle: two mice died) of the same molecule?
**A.** The survival of mice was “one mouse died”.

**Q.** And the “day at which one mouse died” value (Molt-4-luc leukemia; mouse, in vivo)?
**A.** The value was 57 days.

**Q.** With Insulin as the molecule, how does the “% Activity” value (3T3-L1 adipocytes; [2]) read?
**A.** Its value is 5% and 6%.

**Q.** And the Count (3T3-L1 adipocytes; [2])?
**A.** The Count was 2169 and 2178.

**Q.** And the “% Activity” value (3T3-L1 adipocytes; [3])?
**A.** The value was −8% and −12%.

**Q.** And the Count (3T3-L1 adipocytes; [3])?
**A.** The Count was 2065 and 2030.

**Q.** What about the “% Activity” value (3T3-L1 adipocytes; [4]) of the same molecule?
**A.** Its value is 6% and 4%.

**Q.** And the Count (3T3-L1 adipocytes; [4])?
**A.** The Count was 2177 and 2166.

**Q.** What about the “% Activity” value (3T3-L1 adipocytes; [5]) of the same molecule?
**A.** Its value is 2% and −7%.

**Q.** What about the Count (3T3-L1 adipocytes; [5]) of the same molecule?
**A.** Its Count is 2145 and 2075.

**Q.** And the Count (3T3-L1 adipocytes; 2014 Aug. 27, insulin dose 0.82 nM)?
**A.** The Count was 2390 and 2146.

**Q.** What about the Count (3T3-L1 adipocytes; 2014 Aug. 27, insulin dose 2.47 nM) of the same molecule?
**A.** Its Count is 2131 and 2284.

**Q.** What about the “% Activity” value (3T3-L1 adipocytes; [6]) of the same molecule?
**A.** The value was 54% and 42%.

**Q.** What about the Count (3T3-L1 adipocytes; [6]) of the same molecule?
**A.** The Count was 2579 and 2483.

**Q.** And the “% Activity” value (3T3-L1 adipocytes; [7])?
**A.** Its value is 53% and 61%.

**Q.** And the Count (3T3-L1 adipocytes; [7])?
**A.** The Count was 2573 and 2636.

**Q.** What about the “% Activity” value (3T3-L1 adipocytes; [8]) of the same molecule?
**A.** Its value is 90% and 93%.

**Q.** And the Count (3T3-L1 adipocytes; [8])?
**A.** The Count was 2877 and 2903.

**Q.** What about the “% Activity” value (3T3-L1 adipocytes; [9]) of the same molecule?
**A.** Its value is 52% and 59%.

**Q.** And the Count (3T3-L1 adipocytes; [9])?
**A.** Its Count is 2565 and 2617.

**Q.** And the Count (3T3-L1 adipocytes; 2014 Aug. 28, insulin dose 0.01 nM)?
**A.** The Count was 1918 and 2052.

**Q.** What about the Count (3T3-L1 adipocytes; 2014 Aug. 28, insulin dose 0.03 nM) of the same molecule?
**A.** Its Count is 2281 and 2003.

**Q.** And the Count (3T3-L1 adipocytes; 2014 Aug. 28, insulin dose 0.09 nM)?
**A.** Its Count is 2130 and 2378.

**Q.** What about the “% Activity” value (3T3-L1 adipocytes; [10]) of the same molecule?
**A.** The value was 19% and 24%.

**Q.** What about the Count (3T3-L1 adipocytes; [10]) of the same molecule?
**A.** The Count was 2258 and 2306.

**Q.** And the Count (3T3-L1 adipocytes; 2014 Aug. 28, insulin dose 0.82 nM)?
**A.** Its Count is 2111 and 2261.

**Q.** What about the “% Activity” value (3T3-L1 adipocytes; [11]) of the same molecule?
**A.** Its value is 13% and 22%.

**Q.** And the Count (3T3-L1 adipocytes; [11])?
**A.** Its Count is 2208 and 2286.

**Q.** What about the “% Activity” value (3T3-L1 adipocytes; [12]) of the same molecule?
**A.** Its value is 39% and 41%.

**Q.** What about the Count (3T3-L1 adipocytes; [12]) of the same molecule?
**A.** The Count was 2427 and 2442.

**Q.** What about the “% Activity” value (3T3-L1 adipocytes; [13]) of the same molecule?
**A.** Its value is 84% and 48%.

**Q.** And the Count (3T3-L1 adipocytes; [13])?
**A.** Its Count is 2812 and 2503.

**Q.** And the “% Activity” value (3T3-L1 adipocytes; [14])?
**A.** The value was 75% and 85%.

**Q.** And the Count (3T3-L1 adipocytes; [14])?
**A.** Its Count is 2736 and 2827.

**Q.** And the “% Activity” value (3T3-L1 adipocytes; [15])?
**A.** Its value is 85% and 56%.

**Q.** And the Count (3T3-L1 adipocytes; [15])?
**A.** The Count was 2813 and 2574.

**Q.** And the Count (3T3-L1 adipocytes; 2014 Jul. 11, insulin dose 0.09 nM)?
**A.** Its Count is 760 and 587.

**Q.** What about the Count (3T3-L1 adipocytes; 2014 Jul. 11, insulin dose 0.27 nM) of the same molecule?
**A.** The Count was 709 and 761.

**Q.** And the “% Activity” value (3T3-L1 adipocytes; [16])?
**A.** Its value is 28% and 17%.

**Q.** What about the Count (3T3-L1 adipocytes; [16]) of the same molecule?
**A.** Its Count is 800 and 746.

**Q.** And the Count (3T3-L1 adipocytes; 2014 Jul. 11, insulin dose 2.47 nM)?
**A.** The Count was 736 and 828.

**Q.** What about the “% Activity” value (3T3-L1 adipocytes; [17]) of the same molecule?
**A.** The value was 47% and 70%.

**Q.** What about the Count (3T3-L1 adipocytes; [17]) of the same molecule?
**A.** Its Count is 884 and 992.

**Q.** What about the “% Activity” value (3T3-L1 adipocytes; [18]) of the same molecule?
**A.** The value was 47% and 72%.

**Q.** What about the Count (3T3-L1 adipocytes; [18]) of the same molecule?
**A.** The Count was 887 and 1000.

**Q.** What about the “% Activity” value (3T3-L1 adipocytes; [19]) of the same molecule?
**A.** Its value is 68% and 72%.

**Q.** And the Count (3T3-L1 adipocytes; [19])?
**A.** The Count was 979 and 1000.

**Q.** What about the “% Activity” value (3T3-L1 adipocytes; [20]) of the same molecule?
**A.** Its value is 68% and 70%.

**Q.** And the Count (3T3-L1 adipocytes; [20])?
**A.** The Count was 980 and 989.

**Q.** What about the “% Activity” value (3T3-L1 adipocytes; [21]) of the same molecule?
**A.** The value was 3% and 11%.

**Q.** What about the Count (3T3-L1 adipocytes; [21]) of the same molecule?
**A.** Its Count is 1033 and 1075.

**Q.** And the Count (3T3-L1 adipocytes; 2014 Jul. 14, insulin dose 0.27 nM)?
**A.** The Count was 1118 and 1018.

**Q.** And the “% Activity” value (3T3-L1 adipocytes; [22])?
**A.** Its value is 12%.

**Q.** What about the Count (3T3-L1 adipocytes; [22]) of the same molecule?
**A.** The Count was 1082 and 1083.

**Q.** And the “% Activity” value (3T3-L1 adipocytes; [23])?
**A.** The value was 55% and 32%.

**Q.** And the Count (3T3-L1 adipocytes; [23])?
**A.** Its Count is 1317 and 1191.

**Q.** And the “% Activity” value (3T3-L1 adipocytes; [24])?
**A.** Its value is 59% and 41%.

**Q.** What about the Count (3T3-L1 adipocytes; [24]) of the same molecule?
**A.** The Count was 1335 and 1238.

**Q.** And the “% Activity” value (3T3-L1 adipocytes; [25])?
**A.** Its value is 61% and 63%.

**Q.** And the Count (3T3-L1 adipocytes; [25])?
**A.** The Count was 1347 and 1362.

**Q.** What about the “% Activity” value (3T3-L1 adipocytes; [26]) of the same molecule?
**A.** Its value is 64% and 42%.

**Q.** What about the Count (3T3-L1 adipocytes; [26]) of the same molecule?
**A.** The Count was 1364 and 1243.

**Q.** And the “% Activity” value (3T3-L1 adipocytes; [27])?
**A.** Its value is 97% and 106%.

**Q.** What about the Count (3T3-L1 adipocytes; [27]) of the same molecule?
**A.** Its Count is 1545 and 1591.

**Q.** And the Count (3T3-L1 adipocytes; Insulin dose 0.03 nM, duplicates)?
**A.** The Count was 2039 and 1067.

**Q.** And the “% Activity” value (3T3-L1 adipocytes; [28])?
**A.** The value was −3% and −4%.

**Q.** And the Count (3T3-L1 adipocytes; [28])?
**A.** The Count was 2101 and 2091.

**Q.** And the Count (3T3-L1 adipocytes; Insulin dose 0.27 nM, duplicates)?
**A.** The Count was 2196 and 2340.

**Q.** And the Count (3T3-L1 adipocytes; Insulin dose 0.82 nM, duplicates)?
**A.** The Count was 2069 and 2263.

**Q.** And the “% Activity” value (3T3-L1 adipocytes; [29])?
**A.** Its value is 31% and 39%.

**Q.** What about the Count (3T3-L1 adipocytes; [29]) of the same molecule?
**A.** Its Count is 2395 and 2466.

**Q.** What about the “% Activity” value (3T3-L1 adipocytes; [30]) of the same molecule?
**A.** Its value is 58% and 63%.

**Q.** What about the Count (3T3-L1 adipocytes; [30]) of the same molecule?
**A.** Its Count is 2633 and 2673.

**Q.** And the “% Activity” value (3T3-L1 adipocytes; [31])?
**A.** Its value is 70% and 61%.

**Q.** And the Count (3T3-L1 adipocytes; [31])?
**A.** The Count was 2736 and 2660.

**Q.** And the “% Activity” value (3T3-L1 adipocytes; [32])?
**A.** The value was 80% and 62%.

**Q.** What about the Count (3T3-L1 adipocytes; [32]) of the same molecule?
**A.** The Count was 2820 and 2663.

**Q.** And the EC50 (3T3-L1 adipocytes; run of 2014 Aug. 27)?
**A.** Its EC50 is 2.54 nM.

**Q.** What about the EC50 (3T3-L1 adipocytes; run of 2014 Aug. 28) of the same molecule?
**A.** Its EC50 is 6.94 nM.

**Q.** What about the EC50 (3T3-L1 adipocytes; run of 2014 Aug. 29) of the same molecule?
**A.** Its EC50 is 6.66 nM.

**Q.** And the EC50 (3T3-L1 adipocytes; run of 2014 Jul. 11)?
**A.** The EC50 was 3.96 nM.

**Q.** And the EC50 (3T3-L1 adipocytes; run of 2014 Jul. 14)?
**A.** Its EC50 is 2.46 nM.
